A melting point compilation (Tetko et al.; mined from patent text by program, amines drawn as free bases though some values may be those of a salt)

Row | Structure (SMILES) | melting point [°C]
1 | CC(C)(CN1CCN(C(=O)c2ccc(OC(=O)Cc3ccccc3Nc3c(Cl)cccc3Cl)cc2)CC1)SN=O | 61 to 62
2 | Cc1oc(-c2ccccc2)nc1COc1ccc(CON=C(CCC(=O)O)c2ccccn2)cc1 | 116 to 117
3 | CCCCCCC(C(=O)O)n1cc(Cc2ccccc2)c2cc(-c3ccccc3-c3nn[nH]n3)ccc21 (centres undefined) | 108 to 112
4 | COC(=O)n1cc(C)c2c(OCc3ccccc3)c(OC)ccc21 | 124
5 | O=c1[nH][nH]c(=O)n1CCCCl | 168 to 170
6 | O=C(c1ccc(C2CCCCC2)cc1)[C@H]1C[C@H]1C(=O)O (relative stereo) | 162 to 163
7 | CC(C)(C)c1cc(C=Cc2cc(C=Cc3cc(C(C)(C)C)cc(C(C)(C)C)c3)cc(CO)c2)cc(C(C)(C)C)c1 | 226 to 228
8 | CCC(=O)Nc1cccc(-c2ccnc3c(C(=O)c4ccccc4)cnn23)c1 | 172 to 174
9 | CNc1nc(Nc2ccc(Cl)c(Cl)c2)ncc1NC(=O)OC | 303 to 305
10 | O=C(N[C@@H](CSc1ccccc1)[C@H]1CO1)OCc1ccccc1 | 61.7
11 | CC(=O)Oc1c(C)cc(C(=O)Nc2c(CO)nc3c(C)cc(C)cc3c2-c2ccccc2Cl)cc1C | 134 to 136
12 | CC(=O)c1cccc2oc(C(=O)Nc3ccc(-c4ccc(S(=O)(=O)NC(C(=O)O)C(C)C)cc4)cc3)c(C)c12 (centres undefined) | 228 to 235
13 | CC(C)N(CCC(CCN(C(C)C)C(C)C)(C(N)=O)c1ccccc1C(F)(F)F)C(C)C | 131 to 132
14 | c1ccc(Cn2ccc(CN3CCC(c4ccccc4)(c4ccccc4)CC3)n2)cc1 | 167 to 168
15 | CC12CC(N3CCOCC3)C(O)CC1CCC1C2CCC2(C)C(C(=O)CCl)CCC12 (centres undefined) | 181
16 | CC(=O)N(C)c1cccc(-c2ccnc3c(Cl)cnn23)c1 | 163 to 165
17 | CCCCCCOc1ccc(C(=O)NCCC(C)(C)C)cn1 | 75 to 76.5
18 | Cc1c(/C=C2\COc3ccccc3C2=O)ncn1C(c1ccccc1)(c1ccccc1)c1ccccc1 | 231 to 233
19 | O=C(NC1N=C(c2ccccc2)c2ccccc2NC1=O)c1cccc2ccccc12 (racemic) | 162 to 167
20 | CS(=O)(=O)c1ccc(CCl)cc1 | 102
21 | Cc1nn(C2CCCCC2)c(N)c1C(N)=O | 181 to 182
22 | COc1ccc(NC(=O)c2ccc(Cl)c(Cl)c2)cc1Nc1cccc(C(F)(F)F)c1 | 151 to 152

Row | Structure (SMILES) | melting point [°C]
23 | C=C(C(=O)OC)N(Cc1ccccc1NC(=O)C(F)(F)F)S(=O)(=O)c1ccc(OC)cc1 | 120 to 121
24 | Cc1ncc2n1-c1ccc(Cl)cc1C(c1ccccc1F)N(N=O)C2 (centres undefined) | 139 to 145
25 | c1ccc(CN2CCC(n3nnc4ccccc43)CC2)cc1 | 110 to 111
26 | CCCC1CCC(C2(N=C=S)C=CC(CC)=CC2)CC1 (centres undefined) | 43
27 | COc1cc(Nc2c(C#N)cnc3sccc23)c(Cl)cc1Cl | 197 to 199
28 | CCN(C(=S)Oc1ccc(C(C)C)cc1)c1cccc(OC)n1 | 53 to 54
29 | CCOCc1nc2c(N)nc3cccnc3c2n1CC(C)(C)OCCS(C)(=O)=O | 189 to 191
30 | COC(=O)c1ccc(Br)cc1COc1ccccc1 | 69.5 to 70.5
31 | C=CCN1C2CCC1C1CCC2N1C(c1ccc(C(=O)N2CCCCC2)cc1)c1cccc(O)c1 (centres undefined) | 133 to 135
32 | COc1cc(O)c2c(c1)[C@H]1CN(C)CC[C@@H]1CC2=O (relative stereo) | > 250
33 | CCc1cccc(CC)c1NC(=NCc1cccc(CCl)c1)Nc1c(CC)cccc1CC | 83.5 to 86.5
34 | COCC1COc2cc3ncnc(Nc4cc(C)cc(C)c4)c3cc2O1 (centres undefined) | 268 to 270
35 | CCOC(=O)c1cc(O)c2c(n1)c(C)cc1c(O)cc(C(=O)OCC)nc12 | 198 to 200
36 | COC(c1ccc(C)cc1)c1ccccc1Br (centres undefined) | 98 to 99
37 | COc1ccc2c(C(=O)c3ccc(OC4CCCCC4N4CCOCC4)cc3)c(-c3ccc(OCCN4CCCC4)cc3)sc2c1 (centres undefined) | 50 to 57
38 | O=C1CC(/C=C/c2ccccc2)Nc2ccccc2N1Cc1ccccc1 (centres undefined) | 186 to 187
39 | O=C(C=Cc1ccccc1)c1c(Cl)cccc1Cl | 98.2 to 99.2
40 | c1ccc(Nc2nc(-c3cccnc3)nc3ccccc23)cc1 | 173 to 178
41 | O=C(CNCc1ccc(OCc2ccccc2)cc1)NCCCOc1ccccc1 | 55 to 56
42 | CCc1nc2c(N)nc3ccccc3c2n1CCCC(C)=O | 206 to 208
43 | CCOC(=O)c1cn(-c2cc3ccccc3cn2)cn1 | 161 to 162

Now from value to compound:

Row | melting point [°C] | Structure (SMILES)
44 | 127 to 128 | CC(c1ccc(-c2ccccc2)c(F)c1)c1cc(CO)no1 (centres undefined)
45 | 302 | O=c1[nH]nc(-c2cccc([N+](=O)[O-])c2)c2ncccc12
46 | 117 to 118 | COC(=O)/C=C/c1nc2ccc(Cl)cc2c(=O)o1
47 | > 200 | CCOC(=O)c1ccc(NC(=O)N2CCc3cc(SC)c(C(F)(F)F)cc32)cc1
48 | 102 to 106 | Cc1ccc(C=Nc2ccc(Cl)cc2Cl)c(C)c1
49 | 123 to 124 | CCOC(=O)c1cnc2ccc(Cl)cc2c1-c1ccccc1
50 | 203 to 205 | CC1CNc2c(ccc(NC3=NCCN3)c2Br)N1 (single isomer, unassigned; (+))
51 | 124 to 125 | COC(=O)c1nn(-c2cccc(C(F)(F)F)c2)c(=O)cc1OC
52 | 274 to 275 | O=c1cc(-c2ccc(O)c(-c3cccs3)c2)oc2ncccc12
53 | 212 to 213 | O=C(NC1CCN(CCCOc2ccc3c4c(c(=O)oc3c2)CCC4)CC1)c1ccc([N+](=O)[O-])cc1
54 | 266 to 268 | CS(=O)(=O)N1CCn2c(nc3c(N)nc4cc(OCc5ccccc5)ccc4c32)C1
55 | 73.1 | CCOC(COc1cccc2c1OCCO2)OCC
56 | 89 to 93 | COC(=O)c1ccc2c(c1)C=CC(=O)CO2
57 | 189 to 192 | O=c1[nH]cccc1-c1cccnc1
58 | 181 to 182 | Cc1c(NC(=O)c2ccc(-c3ccc4c(c3)OCO4)cc2F)ccc2cc(CN3CCCC3)cnc12
59 | 211 to 212 | Cc1cc(C#N)sc1-c1ccc2c(c1)C(C)(C)OC(=S)N2
60 | 66 to 67 | CCCCCCC1(CCCCCC)c2cc(Cl)ccc2-c2ccc(Cl)cc21
61 | 148 to 150 | O=C1N(Cc2ccc(Cl)o2)c2ccccc2C12COc1cc3c(cc12)OCO3 (centres undefined)
62 | 96 to 100 | CC(=O)N1CCC(Oc2ccc(C(F)(F)F)cc2)(c2ccccc2)CC1

Row | melting point [°C] | Structure (SMILES)
63 | 173 to 175 | CCOc1ccccc1-c1cc(NC(=O)C2CCN(C(C)C)CC2)ncn1
64 | 116 to 120 | CCOC(=O)C1CCn2c(cc3ccccc32)C1O (centres undefined)
65 | 236 to 238 | NC(=O)c1c(Cl)c(-c2ccccc2)n2c1CN(C(=O)c1cccs1)CC2
66 | 98 to 101 | FC(F)(F)c1cc(Cc2ccc(Cl)c(C(F)(F)F)c2)ccc1Cl
67 | 293 to 295 | Nn1c(=O)c(=O)[nH]c2c(Br)cc(F)cc21
68 | 268 to 270 | O=C(c1cccs1)c1cnc2[nH]ncc2c1NC1CC1
69 | 240 to 242 | COc1cc(CNC(=O)c2nc3scc(COCc4ccc(C(=O)O)cc4)c3c(=O)[nH]2)ccn1
70 | 140 to 141 | Cn1c(CC(=O)O)ccc1C(=O)c1ccccc1Cl
71 | 208 to 211 | CCc1cn2c(=O)c(C#N)cnc2c2ccccc12
72 | 261 | CNc1ccc2cc(OC)ccc2c1N=O
73 | 138 to 140 | CCOC(=O)C1=C(C)NC(C)=C(C(=O)OCC)C1c1ccccc1C=CC(=O)OC
74 | 202 | CC(C)N(C(=O)COc1c(F)cc(-c2ccc(C(=O)O)cc2)cc1[N+](=O)[O-])C(C)C
75 | 150 to 151 | CCOC(=O)N1CCN(c2ccc(C(=O)CCc3ccc(NC4=NCCN4)cc3)cc2)CC1
76 | 172 | c1ccc2cc3[nH]c(SCc4ncc[nH]4)nc3cc2c1
77 | 134 to 136 | N#CCc1c[nH]c2cccc(Cl)c12
78 | 196 to 198 | CC(C)Oc1ccccc1C1(OC(=O)N2CCN(c3ccncc3)CC2)C(=O)Nc2ccc(Cl)cc21 (centres undefined)
79 | 134 to 136 | Nc1ccc(F)c(N2C(=O)C3=C(CCCC3)C2=O)c1
80 | 133 to 135 | O=C(O)CCC(O)c1ccc(-c2ccccc2)c(F)c1 (centres undefined)
81 | 147 to 149 | O=C1NC(=O)C2(CCOc3ccc(F)cc32)S1 (centres undefined)

Row | melting point [°C] | Structure (SMILES)
82 | 144 to 146 | CN1C(=O)C(C)(CCN2CCN(c3cccc4ccccc34)CC2)c2cc(F)ccc21 (centres undefined)
83 | 132 | O=C(c1ccccc1)c1cc(O)c(O)c([N+](=O)[O-])c1
84 | 252 to 255 | CC12CC3(C)CC(c4ccc(C(=O)O)cc4)(C1)CC(c1ccc(C(=O)O)cc1)(C2)C3
85 | 166 | Cc1cn(-c2cccc(C(=O)CC(=O)Nc3cc(C#Cc4ccc(F)cc4)ccc3NC(=O)OC(C)(C)C)c2)cn1
86 | 165 to 168 | O=C(O)c1ccccc1N1C(=O)C=CC1=O
87 | 161 to 162 | NC(=O)c1cc(F)cc(-c2ccc(F)c3cc(Cc4cccc(C(F)(F)F)c4)sc23)c1
88 | 51 to 54 | COC(=O)c1ccc(Cl)c(CBr)c1Cl
89 | 222 | Cc1cc(-c2cn[nH]c2N)cc(C)n1
90 | 182 to 184 | CCCCc1ncc(/C=C(\Cc2cccs2)C(=O)O)n1Cc1cccc([N+](=O)[O-])c1
91 | 208 to 211 | Cc1ccc(C(=O)Nc2cc(N3CCOCC3)cc(C(F)(F)F)c2)cc1Nc1nccc(-c2cccnc2)n1
92 | 170 to 172 | Oc1cccc(Cc2n[nH]c3ccccc23)c1
93 | 230 to 231 | O=C(O)c1cc(Cl)c(O)c(O)c1Cl
94 | 79 to 81 | COc1ccc(C2=NN(C(C)C)C(=O)[C@H]3CCCC[C@@H]23)cc1OC (relative stereo)
95 | 38 to 40 | COc1ccc(F)c([N+](=O)[O-])c1C
96 | 101 to 103 | CC(CCl)OC(=O)Nc1ccc([N+](=O)[O-])cc1Cl (centres undefined)
97 | 151 to 153 | CC(=O)c1ccc(SCC(=O)O)cc1
98 | 190 to 193 | CNCC1CCN(c2ccc(Cl)cc2NC(=O)c2csc3cncnc23)CC1
99 | 126 to 128 | CS(=O)(=O)c1ccc(-c2c(-c3ccccc3)noc2C(F)F)cc1
